Experiment [1] has as its system TGF-beta-induced phosphorylation of Smad2 and Smad3 in Mv1-Lu cells. The experiment is described as follows: Inhibition of Smad2/3 phosphorylation in Mv1Lu cells (Example 35A). Type of experiment: cell-based, mink Mustela vison. To be noted: Neogale vison, Mv1-Lu cells, TGF-beta 1 5 ng/ml, phospho-Smad2/3 ELISA, read-out: TβR activity (Example 35A). A digest of the protocol:
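Serum-starved (16-20 h) Mv1-Lu mink lung epithelial cells were pre-incubated 1.5 h with compound dilutions (0.2% DMSO), then stimulated 1 h with 5 ng/ml TGF-beta 1. Phospho-Smad2 (Ser465/467)/Smad3 (Ser423/425) in lysates was measured by ELISA. IC50 came from dose-response fits between stimulated and unstimulated controls.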
In general terms: ELISA stands for enzyme-linked immunosorbent assay.

For a further experiment, the target named is T1, GST-ALK5 (Homo sapiens, UniProt P36897).
T1 sequence (P36897 34-503): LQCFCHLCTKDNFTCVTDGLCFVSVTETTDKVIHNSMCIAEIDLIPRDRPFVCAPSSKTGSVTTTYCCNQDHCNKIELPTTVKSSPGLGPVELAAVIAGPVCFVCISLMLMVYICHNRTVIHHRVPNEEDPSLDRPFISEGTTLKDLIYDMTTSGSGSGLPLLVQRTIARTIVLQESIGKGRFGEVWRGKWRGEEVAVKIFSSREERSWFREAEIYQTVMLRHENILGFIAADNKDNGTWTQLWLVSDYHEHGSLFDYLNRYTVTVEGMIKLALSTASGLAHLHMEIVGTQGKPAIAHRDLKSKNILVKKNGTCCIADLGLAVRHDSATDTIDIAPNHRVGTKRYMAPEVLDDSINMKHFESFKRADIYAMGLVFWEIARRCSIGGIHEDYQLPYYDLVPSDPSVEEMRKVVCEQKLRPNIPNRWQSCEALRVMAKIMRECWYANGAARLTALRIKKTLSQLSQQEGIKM
The experiment is described as follows: In-vitro (enzyme) kinase assay, 384-well flashplate (Example 36). In kind it is biochemical. To be noted: GST-ALK5, GST-SMAD2 substrate, 3 mM ATP, 30° C., 45 min; read-out: TβR activity (Example 36). In a few lines: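 Radiometric flashplate assay: 31.2 nM GST-ALK5 phosphorylating 439 nM GST-SMAD2 with 3 mM ATP plus ³³P-ATP, in HEPES/MgCl2/MnCl2/DTT/BSA buffer pH 7.4, 45 min at 30 °C, 5-10 compound concentrations. EDTA stop, filtration and washing, then radioactivity counted; IC50 derived from the curve.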

pIC50: −log10 of the molar value.

On to `Nc1ncc(-c2cc(-c3ccccc3F)nc3ncccc23)c2ccncc12` [compound 72, 4-[2-(2-fluoro-phenyl)-[1,8]naphthyridin-4-yl]-[2,7]naphthyridin-1-ylamine], for which the pIC50 in experiment [1] was 6.00 to 7.00; at GST-ALK5, more than 7.00.

Take `CN(C)CCc1ccc(-c2cncc(-c3cc(-c4cc(Cl)ccc4F)nc4ncccc34)c2)cc1` [compound 162, [2-(4-{5-[2-(5-Chloro-2-fluoro-phenyl)-[1,8]naphthyridin-4-yl]-pyridin-3-yl}-phenyl)-ethyl]-dimethyl-amine]: the pIC50 (in experiment [1]; at GST-ALK5) was more than 7.00 each time.

On to `CN1CCN(c2ccc(-c3cncc(-c4cc(-c5cc(Cl)ccc5F)nc5ncccc45)c3)cc2)CC1` [compound 92, 2-(5-Chloro-2-fluoro-phenyl)-4-{5-[4-(4-methyl-piperazin-1-yl)-phenyl]-pyridin-3-yl}-[1,8]naphthyridine], for which the pIC50 (in experiment [1]; on GST-ALK5) was more than 7.00 throughout.

Take `CN(C)CCCOc1ccc(-c2cncc(-c3cc(-c4cc(Cl)ccc4F)nc4ncccc34)c2)cc1` [compound 139, [3-(4-{5-[2-(5-Chloro-2-fluoro-phenyl)-[1,8]naphthyridin-4-yl]-pyridin-3-yl}-phenoxy)-propyl]-dimethyl-amine]: the pIC50 (in experiment [1]; on GST-ALK5) was more than 7.00 throughout.

On to `CN1CC[C@@H](n2cc(-c3cncc(-c4cc(-c5cc(Cl)ccc5F)nc5ncccc45)c3)cn2)C1` [compound 65, 2-(5-Chloro-2-fluoro-phenyl)-4-{5-[1-((R)-1-methyl-pyrrolidin-3-yl)-1H-pyrazol-4-yl]-pyridin-3-yl}-[1,8]naphthyridine], for which the pIC50 (in experiment [1]; at GST-ALK5) was more than 7.00 each time.

As for `CN1CCN(c2nc(-c3cncc(-c4cc(-c5ccccc5F)nc5ncccc45)c3)no2)CC1` [compound 54, 2-(2-Fluoro-phenyl)-4-{5-[5-(4-methyl-piperazin-1-yl)-[1,2,4]oxadiazol-3-yl]-pyridin-3-yl}-[1,8]naphthyridine], the pIC50 in experiment [1] was 5.00 to 6.00; at GST-ALK5, more than 7.00.

For `Fc1ccc(F)c(-c2cc(-c3cccnc3)c3cccnc3n2)c1` [compound 137, 2-(2,5-Difluoro-phenyl)-4-pyridin-3-yl-[1,8]naphthyridine], the results for the pIC50 (in experiment [1]; on GST-ALK5) were less than 5.00 and 5.00 to 6.00, respectively.

Consider `NS(=O)(=O)c1cccc(-c2cncc(-c3cc(-c4cc(Cl)ccc4F)nc4ncccc34)c2)c1` [compound 135, 3-{5-[2-(5-Chloro-2-fluoro-phenyl)-[1,8]naphthyridin-4-yl]-pyridin-3-yl}-benzene-sulfonamide], for which the pIC50 in experiment [1] is 6.00 to 7.00; on GST-ALK5 it was more than 7.00.

For the compound `CCN1CCC(c2ccc(-c3cncc(-c4cc(-c5cc(F)ccc5F)nc5ncccc45)c3)cc2)CC1` [compound 123, 2-(2,5-Difluoro-phenyl)-4-{5-[4-(1-ethyl-piperidin-4-yl)-phenyl]-pyridin-3-yl}-[1,8]naphthyridine], the pIC50 (in experiment [1]; at GST-ALK5) was more than 7.00 in each case.

In the case of `Fc1ccc(Cl)cc1-c1cc(-c2cncc(-c3ccncc3)c2)c2cccnc2n1` [compound 102, 4-[3,4′]Bipyridinyl-5-yl-2-(5-chloro-2-fluoro-phenyl)-[1,8]naphthyridine], the pIC50 in experiment [1] was 6.00 to 7.00; at GST-ALK5, more than 7.00.

Take `Cc1ccn(-c2cc(-c3cncc(-c4ccc(N5CCN(C)CC5)cc4)c3)c3cccnc3n2)n1` [compound 128, 4-{5-[4-(4-Methyl-piperazin-1-yl)-phenyl]-pyridin-3-yl}-2-(3-methyl-pyrazol-1-yl)-[1,8]naphthyridine]: the pIC50 (in experiment [1]; on GST-ALK5) was 5.00 to 6.00 throughout.

For the compound `Fc1ccc(Cl)cc1-c1cc(-c2cncc(-c3ccc4c(c3)CCNC4)c2)c2cccnc2n1` [compound 155, 2-(5-Chloro-2-fluoro-phenyl)-4-[5-(1,2,3,4-tetrahydro-isoquinolin-6-yl)-pyridin-3-yl]-[1,8]naphthyridine], the pIC50 (in experiment [1]; at GST-ALK5) was more than 7.00 each time.

These data come from US8912216B2, “Hetaryl-[1,8]naphthyridine derivatives” (Merck Patent GmbH, priority 2010, dated 2014).
